According to the RepoRT retention time repository:

Experiment: RP, Waters Atlantis T3, 50 × 4.6 mm, 5 µm, 40 °C, 0.8 mL/min, estimated dead time 0.66 min; A: water + 0.05% trifluoroacetic acid; B: acetonitrile + 0.1% formic acid, pH 3; gradient (min/%B) 0/10 1/10 7/95 12/95 12.5/10 14/10
Conditions: stereoisomer not certain

Row | LC retention time | SMILES
1 | 4.09 min | CC1(C)SC2C(NC(=O)C(N)c3ccccc3)C(=O)N2C1C(=O)O (stereo not given) [Ampicillin]
2 | 2.91 min | CC1C(NC(=O)C(=NOC(C)(C)C(=O)O)c2csc(N)n2)C(=O)N1S(=O)(=O)O (stereo not given) [Aztreonam]
3 | 5.91 min | CCC1OC(=O)C(C)C(OC2CC(C)(OC)C(O)C(C)O2)C(C)C(OC2OC(C)CC(N(C)C)C2O)C(C)(OC)CC(C)C(=O)C(C)C(O)C1(C)O (stereo not given) [Clarithromycin]
4 | 4.83 min | CCCC1CC(C(=O)NC(C(C)Cl)C2OC(SC)C(O)C(O)C2O)N(C)C1 (stereo not given) [Clindamycin]
5 | 4.44 min | CCC(C)CCCC(=O)NC(CCN)C(=O)NC(C(=O)NC(CCN)C(=O)NC1CCNC(=O)C(C(C)O)NC(=O)C(CCN)NC(=O)C(CCN)NC(=O)C(CC(C)C)NC(=O)C(CC(C)C)NC(=O)C(CCN)NC1=O)C(C)O (stereo not given) [Colistin]
6 | 5.79 min | CCCCCCCCCC(=O)NC(Cc1c[nH]c2ccccc12)C(=O)NC(CC(N)=O)C(=O)NC(CC(=O)O)C(=O)NC1C(=O)NCC(=O)NC(CCCN)C(=O)NC(CC(=O)O)C(=O)NC(C)C(=O)NC(CC(=O)O)C(=O)NCC(=O)NC(CO)C(=O)NC(C(C)CC(=O)O)C(=O)NC(CC(=O)c2ccccc2N)C(=O)OC1C (stereo not given) [Daptomycin]
7 | 5.44 min | COc1cccc2c1C(=O)c1c(O)c3c(c(O)c1C2=O)CC(O)(C(C)=O)CC3OC1CC(N)C(O)C(C)O1 (stereo not given) [Daunomycin]
8 | 8.3 min | CC(=O)OC1CC2(C)C(CC(O)C3C4(C)CCC(O)C(C)C4CCC32C)C1=C(CCC=C(C)C)C(=O)O (stereo not given) [Fusidinic acid]
9 | 6.62 min | CNC(=O)CC1NC(=O)c2csc(n2)-c2ccc(-c3nc(C4=NC(C(=O)N5CCCC5C(N)=O)CO4)cs3)nc2-c2csc(n2)-c2csc(n2)C(C(O)c2ccccc2)NC(=O)CNC(=O)c2nc(sc2COC)C(C(C)C)NC(=O)c2nc1sc2C (stereo not given) [GE2270A]
10 | 6.52 min | CC=CC=CC1OC(O)(C(CC)C(=O)NCC=CC=C(C)C(OC)C(C)C2OC(C=CC=CC=C(C)C(=O)c3c(O)cc[nH]c3=O)C(O)C2O)C(O)C(O)C1(C)C (stereo not given) [Kirromycin]
11 | 6.77 min | C=C(NC(=O)c1csc(-c2nc3c(cc2O)-c2nc(cs2)C(=O)NC(C(C)O)C(=O)NC(=CC)c2nc(cs2)C(=O)NC2CC(O)C(=O)OCc4cccc5[nH]c(c(C)c45)C(=O)SCC(NC(=O)c4csc2n4)c2nc-3cs2)n1)C(N)=O (stereo not given) [Nosiheptide]
12 | 7.62 min | COC1C(OC(N)=O)C(O)C(Oc2ccc3c(O)c(NC(=O)c4ccc(O)c(CC=C(C)C)c4)c(=O)oc3c2C)OC1(C)C (stereo not given) [Novobiocin]
13 | 5.75 min | CC1(C)SC2C(NC(=O)Cc3ccccc3)C(=O)N2C1C(=O)O (stereo not given) [Penicillin G]
14 | 5.22 min | CCCC=CC=CC(=O)NC(CC(N)=O)C(=O)NC(CC(N)=O)C(=O)NC(C(=O)NC(CCCN)C(=O)NC(C(=O)NC(C(=O)NC(C(=O)NC(C(=O)NC(Cc1ccccc1)C(=O)NC(CCCN)C(=O)NC(C(=O)NC(C(=O)NC(C(=O)NCC(=O)NC(CC(C)C)C(=O)NC(C)C(=O)NC(C(=O)O)C1CCC(O)C(Cl)C1)C1CCC(O)CC1)C(C)O)C1CCC(O)CC1)C(C)O)C1CCC(O)CC1)C1CCC(O)CC1)C(C)O)C1CCC(O)CC1 (stereo not given) [Ramoplanin A]
15 | 6.17 min | COC1C=COC2(C)Oc3c(C)c(O)c4c(O)c(c(C=NN5CCN(C)CC5)c(O)c4c3C2=O)NC(=O)C(C)=CC=CC(C)C(O)C(C)C(O)C(C)C(OC(C)=O)C1C (stereo not given) [Rifampicin]
16 | 4.02 min | CC(=O)NC1C(OC2c3ccc(c(Cl)c3)Oc3cc4cc(c3O)Oc3ccc(cc3Cl)CC3NC(=O)C(N)c5ccc(O)c(c5)Oc5cc(O)cc(c5)C(NC3=O)C(=O)NC4C(=O)NC3C(=O)NC2C(=O)NC(C(=O)O)c2cc(O)cc(OC4OC(CO)C(O)C(O)C4O)c2-c2cc3ccc2O)OC(CO)C(O)C1O (stereo not given) [Teicoplanin A3-1]
17 | 6.65 min | C=C(NC(=O)C(=C)NC(=O)c1csc(C2=NC3c4csc(n4)C4NC(=O)c5csc(n5)C(C(C)(O)C(C)O)NC(=O)C5CSC(=N5)C(=CC)NC(=O)C(C(C)O)NC(=O)c5csc(n5)C3(CC2)NC(=O)C(C)NC(=O)C(=C)NC(=O)C(C)NC(=O)C(C(C)CC)NC2C=Cc3c(C(C)O)cc(nc3C2O)C(=O)OC4C)n1)C(N)=O (stereo not given) [Thiostrepton]
18 | 4.06 min | COc1cc(Cc2cnc(N)nc2N)cc(OC)c1OC [Trimethoprim]
19 | 3.55 min | CNC(CC(C)C)C(=O)NC1C(=O)NC(CC(N)=O)C(=O)NC2C(=O)NC3C(=O)NC(C(=O)NC(C(=O)O)c4cc(O)cc(O)c4-c4cc3ccc4O)C(O)c3ccc(c(Cl)c3)Oc3cc2cc(c3OC2OC(CO)C(O)C(O)C2OC2CC(C)(N)C(O)C(C)O2)Oc2ccc(cc2Cl)C1O (stereo not given) [Vancomycin]

Row | SMILES | LC retention time
20 | CCC(C(=O)O)C1CCC(C)C(C(C)C(O)C(C)C(=O)C(CC)C2OC3(C=CC(O)C4(CCC(C)(C5CCC(O)(CC)C(C)O5)O4)O3)C(C)CC2C)O1 (stereo not given) [Salinomycin] | 11.2 min
